For orientation: melting point means the temperature, or range, at which the solid turns liquid.

Drawing on a melting point compilation (Tetko et al.; mined from patent text by program, amines drawn as free bases though some values may be those of a salt), this text covers melting point for 89 compounds.

Each structure is given as a SMILES string.

Compound `O=C(NCc1ccc(F)cc1)c1ccc2nc(N[C@@H]3CCc4ccccc43)ccc2c1` returned a melting point of 175 °C.

Consider `CNC(=S)c1cnn(-c2ccccc2)c1C#N`, for which the melting point is 215 to 217 °C.

As to `CC1=C(c2cccc(C(F)(F)F)c2)n2ncc(C#N)c2N(C(=O)CCl)C1`, the melting point fell in the range of 178 to 182 °C.

Regarding `CC(=O)Nc1ccc(S(=O)(=O)N[C@H]2COCOC[C@H]2OC(C)=O)cc1` (relative stereo), the melting point fell in the range of 184 to 186 °C.

`COc1cc2c(=O)c(C#N)c[nH]c2cc1NC(C)=O` returned a melting point of 305 to 310 °C.

For the compound `Cc1cc(=O)oc2cc(NCc3ccccc3)ccc12`, the melting point fell in the range of 174 to 176 °C.

The compound `Cc1c(I)c(=O)n(C2CCCC2)c2nc(Nc3ccc(N4CCNCC4)cn3)ncc12` came in with a melting point above 240 °C.

In turn, `NC(c1ccccc1)c1ccc(OCCCOc2ccc(C(N)c3ccccc3)cc2)cc1` (centres undefined) registered a melting point of 118 to 119 °C.

`O=C(O)CCCC(=O)NCC1(S)CCCCC1` yielded a melting point of 73 to 74 °C.

For `O=c1cc(N2CCOCC2)oc2ccc(-c3ccccc3)cc12`, the melting point lay within 218 to 220 °C.

The compound `CCOC(=O)c1cn(CCCl)c2cc(-n3cccc3)c(F)cc2c1=O` displayed a melting point of 254 to 256 °C.

`CN(C)C(=O)N1Cc2c(-c3noc(C4CC4)n3)ncn2-c2ccc(Cl)cc21` displayed a melting point of 254 to 256 °C.

`O=C(O)CCCCc1cc2ccccc2n1-c1cccnc1` yielded a melting point of 143 to 144 °C.

In turn, `OC1CNc2nc3ccccc3n2C1` (centres undefined) had a melting point of 158 to 160 °C.

In the case of `Cc1c(-c2ccccc2)oc2c(S(=O)CCCCCl)cccc2c1=O` (centres undefined), the melting point is 124 to 125 °C.

Compound `CN1CC(C(=O)COC(=O)c2cncc(Br)c2)CC2c3cccc4[nH]cc(c34)CC21` (centres undefined) yielded a melting point of 185 to 187 °C.

`Nc1nc(C(=O)N2CCN(Cc3ccc4c(c3)OCO4)CC2)c(-c2ccncc2)s1` gave a melting point of 216 to 217 °C.

The compound `OCCc1ccc(OCCN2CCCCC2)cc1` showed a melting point of 68 °C.

Compound `CC(C)c1[nH]c2ccccc2c1Sc1ccc(O)cc1` had a melting point of 116 °C.

`COc1cc(OC)c2c(=O)cc(-c3cc[nH]n3)oc2c1` gave a melting point of 197 to 198 °C.

Compound `CN1CCN(c2ccc(Nc3ncc4ccc(-c5ccccc5OCC#N)n4n3)cc2)CC1` yielded a melting point of 95 to 101 °C.

Compound `Cn1nc(N)nc1NCCCOc1cccc(CN2CCCC2)c1` came in with a melting point of 95 to 95.5 °C.

Turning to `CCS(=O)c1cccnc1S(=O)(=O)NC(C)(C)C` (centres undefined), the melting point was in the range of 129 to 131 °C.

In the case of `COCCc1nc2c(N)nc3ccccc3c2n1CC1(O)CCC1`, the melting point was in the range of 169 to 171 °C.

On to `O=C(NC(=O)c1ccccc1)NC1CCC(=O)c2sccc21` (centres undefined), for which the melting point lay in the range of 187 to 190 °C.

Turning to `COC(=O)C1(C)OCC(c2ccccc2)(c2ccccc2)CO1`, the melting point amounted to 116 °C.

As for `CCCOc1ccc(CC(=O)NCCc2ccc(OCC)c(OCC)c2)cc1OCCC`, the melting point is 99 °C.

In turn, `COc1cc(OCc2ccccc2)ccc1/C=C/c1cc(/C=C/c2ccc3cc[nH]c3c2)[nH]n1` yielded a melting point of 86 to 91 °C.

The compound `CCCCCCCCCCCCCCCCCCOC(C)c1ccc(-c2ccc(C(=O)O)cc2)cc1` (single isomer, unassigned; (+)) had a melting point of 145 to 146 °C.

Compound `CC1(C)CC(c2ccc[nH]c2=O)c2cc(C#N)ccc2O1` (centres undefined) gave a melting point of 174 to 176 °C.

`CC(C)(C)OC(=O)NC(Cc1ccc(OCc2ccccc2)cc1)CN1CCOCC1` (centres undefined) showed a melting point of 98 to 99 °C.

In the case of `Fc1ccc(Nc2ncnc3cc(-c4ccco4)ccc23)cc1Cl`, the melting point is above 250 °C.

In the case of `Fc1cc(F)c2[nH]c(-c3ccccc3)c(CCN3CCCCC3)c2c1`, the melting point lay within 185 to 187 °C.

In turn, `CC(C)Nc1c([N+](=O)[O-])cnn1-c1ncc(Cl)cc1Cl` gave a melting point of 123 °C.

Consider `COC1NC(=O)C(OC)(OC)C1Cl` (centres undefined), for which the melting point was in the range of 141 to 142 °C.

On to `C#Cc1cccc(Nc2ncnc3ccc(S(=O)(=O)n4ccc(C=CC(=O)O)c4)cc23)c1`, for which the melting point was in the range of 286 to 289 °C.

As to `CCOC(=O)C(=Cc1cccn2cc(C)nc12)N=[N+]=[N-]`, the melting point fell in the range of 121 to 123 °C.

`N#Cc1cn(C2CCc3ccccc3NC2=O)nn1` (centres undefined) yielded a melting point of 214 to 216 °C.

`CC(C)(Cn1cnc2c(N)nc3c(c21)CCCC3)OCCS(C)(=O)=O` yielded a melting point of 219 to 223 °C.

Take `COc1ccc(CSc2nc(-c3ccccc3)n(Cc3cc4c(cc3Cl)OCO4)c2C=O)cc1`: the melting point worked out at 120 °C.

For `O=C(CCN1CCN(c2cccc3[nH]ccc23)CC1)c1csc2ccccc12`, the melting point was 83 to 85 °C.

In the case of `CC(=O)CC(=O)OC(c1ccccc1)c1ccccc1`, the melting point is 44 to 54 °C.

The compound `COc1cc2c(Nc3cccc(Br)c3)c(C#N)cnc2c(OC)c1OC` displayed a melting point of 211 to 213 °C.

On to `CN1C(=O)CC[C@]2(C)c3ccc(Sc4ccc(-c5ccccc5)nn4)cc3CC[C@@H]12`, for which the melting point was in the range of 199 to 200 °C.

With `Cc1c(NC(=O)NCCCO)c(C)c2c(c1-c1ccccc1)OCC2c1ccc(C(C)C)cc1` (centres undefined), the melting point lay within 145 to 146 °C.

In turn, `CN(C)C1=NS(=O)(=O)N=C1N[C@@H]1c2cc(OC(F)(F)F)ccc2OC(C)(C)[C@H]1O` displayed a melting point of 135 to 140 °C.

Regarding `CCCC(=O)N(Cc1ccc(-c2ccccc2-c2nnn[nH]2)cc1)C(C)(C)C(=O)O`, the melting point was in the range of 187 to 189 °C.

In the case of `CCc1c(Cc2[nH]c(Cc3[nH]c(C(=O)OCc4ccccc4)c(C)c3CC)c(CC)c2CC)[nH]c(C(=O)OCc2ccccc2)c1C`, the melting point worked out at 211 °C.

On to `OC(CN1CCN(c2ccccn2)CC1)(Cn1cncn1)c1ccc(Cl)cc1Cl` (centres undefined), for which the melting point lay in the range of 116 to 118 °C.

The compound `CCOC(=O)CON(CC)C(=S)Nc1ccccc1C(C)C` had a melting point of 57 to 58 °C.

In turn, `Cc1cn(C(C(=O)N(C)C)C2CCCCC2)nc1-c1ccccc1` (centres undefined) displayed a melting point of 102 to 104 °C.

In turn, `Cc1c(-c2ccccc2)c(N2CC[C@H](N(C)C)C2)c2oc(C(C)(C)F)nc2c1C#N` came in with a melting point of 130 to 132 °C.

As for `O=c1[nH]c(NCCCOc2cccc(CN3CCCCC3)c2)ncc1[N+](=O)[O-]`, the melting point fell in the range of 161 to 164 °C.

Compound `NCC(=O)NCc1ccc(F)cc1` returned a melting point of 114 to 115 °C.

On to `Clc1cccc(Nc2ccc(Oc3ccccc3)cc2)n1`, for which the melting point fell in the range of 69 to 73 °C.

`Cc1ccc(C2c3c(C)c(N4CCN(c5ccc(C(F)(F)F)cc5)CC4)c(C)c(C)c3OC2(C)C)cc1` (centres undefined) returned a melting point of 180 to 181 °C.

Regarding `CN1CCC(n2nc(-c3c(-c4ccccc4)nn4ccccc34)ccc2=O)CC1`, the melting point lay within 139 to 140 °C.

In turn, `C#Cc1ccc(CO[C@@H]2COc3nc([N+](=O)[O-])cn3C2)cc1` came in with a melting point of 162 to 164 °C.

The compound `COc1ccc(C)cc1NC(=O)Nc1ccc(N2CCN(C(=O)Nc3ccc(OCCO)cc3Cl)C(C)C2)cc1` (centres undefined) gave a melting point of 129 to 131 °C.

As for `CCCCCC(C)N(Cc1ccc(C(C)(C)C)cc1)C(Nc1ccc(OC)cc1OC)=C1C(=O)COC1=O` (centres undefined), the melting point was in the range of 115 to 117 °C.

With `OCc1cccc2oc3c(c12)CCCC3`, the melting point was in the range of 43 to 45 °C.

For the compound `C(C#CSCc1ccccc1)#CSCc1ccccc1`, the melting point was 38 to 39 °C.

In turn, `CNc1nc(-c2cccc(-n3cccc3)c2)c2cc(OC)c(OC)cc2n1` showed a melting point of 199 to 201 °C.

In turn, `Cn1c(Cc2ccc(Cl)cc2Cl)nc2cc(C(=O)O)ccc2c1=O` gave a melting point of 266 to 271 °C.

`COC1CC(C)(C)C(O)C(OC(=O)c2ccccc2)C=C1C` (centres undefined) came in with a melting point of 98 to 99 °C.

`COc1ccc(Cn2c(N)cc(=O)[nH]c2=S)cc1OCc1ccccc1` registered a melting point of 239 to 240 °C.

As for `O=C1CCC2CCCC(CCC(=O)OCc3ccccc3)C2N1` (centres undefined), the melting point lay within 101 to 102 °C.

For the compound `C=C(C)C(=O)OC(C1CCCC1)C(O)(C(F)(F)F)C(F)(F)F` (centres undefined), the melting point was 59 °C.

In turn, `O=C(O)CC1Cc2ccccc2NC1=O` (centres undefined) had a melting point of 145 to 146 °C.

`Cc1cc2c(s1)SCC1CC(=O)N(c3ccc(Cl)cc3)N=C21` (centres undefined): the melting point was in the range of 142 to 144 °C.

Consider `COc1ccc2c(c1)NC(=O)CC(C(=O)O)C2` (centres undefined), for which the melting point was in the range of 202 to 204 °C.

Turning to `Cc1cc(O)n2nc(CN=[N+]=[N-])nc2n1`, the melting point lay within 193 to 194 °C.

In turn, `CCOC(=O)C1(C)OC(C)=C(O)C1=O` (centres undefined) gave a melting point of 89.2 to 89.5 °C.

The compound `OCC1CC(O)C(n2cnc3cc(Cl)c(Cl)cc32)C1` (centres undefined) registered a melting point of 244 to 245 °C.

`O=C(NS(=O)(=O)c1ccccc1-c1ccc(Cn2c(CCCC(F)(F)F)nn(-c3ccccc3C(F)(F)F)c2=O)cc1)c1ccccc1` yielded a melting point of 197 to 199 °C.

Regarding `CC=CC=CCOC(=O)C1=C(C)NC(C)=C(C(=O)OC)C1c1cccc([N+](=O)[O-])c1` (centres undefined), the melting point fell in the range of 135 to 136 °C.

With `CC1Nc2ccc(-c3ccc(C#N)n3C)cc2C(C)(C)O1` (centres undefined), the melting point fell in the range of 195 to 196 °C.

The compound `CCCCn1c(C(=O)c2cc(C)cc(C=CC#N)c2)c(C(C)C)c(=O)[nH]c1=O` showed a melting point of 164 to 165 °C.

`CN(C)CC/C=C1/c2ccccc2CCc2ccc(Br)cc21` had a melting point of 73 to 75 °C.

As for `Cc1nn2c(-c3cc(Cl)ccc3Cl)ccnc2c1C(N)=O`, the melting point fell in the range of 234 to 236 °C.

Consider `CO[C@@H]1CN(CCC#N)CC[C@@H]1NC(=O)c1cc(Cl)c(N)c2c1OCC2` (relative stereo), for which the melting point came to 191 °C.

Consider `FC1(c2cn(-c3ccc(Br)cc3)nn2)CN2CCC1CC2` (centres undefined), for which the melting point stood at 127 °C.

Compound `O=C(Cc1ccncc1)NC(Cc1c[nH]c2ccccc12)C(O)CCc1cc(C(F)(F)F)cc(C(F)(F)F)c1` (centres undefined) had a melting point of 213 to 214 °C.

As to `OCCCOc1cccc(NC(=S)NCC(F)(F)F)n1`, the melting point fell in the range of 123 to 124 °C.

In the case of `CCn1cc(C(=O)O)c(=O)c2cc(F)c(N3CCC(CNC)C3)nc21` (centres undefined), the melting point lay in the range of 251 to 253 °C.

For the compound `Cc1cnc2[nH]cc(/C=C3\N=C(NCC(C)C)NC3=O)c2c1`, the melting point was in the range of 338 to 339 °C.

As to `Cc1[nH]c2ccc(S(=O)(=O)c3cc(F)cc(F)c3)cc2c1CCNC(=O)OC(C)(C)C`, the melting point lay in the range of 201 to 204 °C.

For the compound `N#Cc1cc2c(-c3ccncc3)nccc2[nH]c1=O`, the melting point was above 300 °C.

Consider `Cc1cc(C)cc(-c2cnn3c(-c4cccc(C#N)c4)ccnc23)c1`, for which the melting point came out at 147 °C.
